Results on 1 compound are retold here after PMC4109680, “Identification and Preclinical Pharmacology of the γ-Secretase Modulator BMS-869780” (International Journal of Alzheimer's Disease, 2014).

Assay [1] deals with Aβ1-42 (H4-APPsw). Briefly: Aβ1-42 time-resolved fluorescence immunoassay in H4-APPsw cell cultures. The following applies: Homo sapiens; H4-APPsw cultures treated overnight. The assay is classed as cell-based, human. How it is done:
(§1) H4-APPsw cell cultures were maintained on Dulbecco's modified Eagle's medium (DMEM) supplemented with L-glutamine (2 mM), fetal bovine serum (10%), and G418 (100 μg/mL). […] Aβ1-42 and Aβ1-40 assays, and Notch inhibition assays, were carried out as described previously. Mouse embryonic fibroblasts deficient in PS1 and PS2 (MEF dKO) were passaged twice per week in DMEM/F-12 medium, consisting of a 1 : 1 mixture of DMEM and F-12 nutrient mixture supplemented with 10% fetal bovine serum, penicillin, and streptomycin. For expression of human presenilin-1 in MEF dKO cells, the full length human presenilin-1 cDNA open reading frame was cloned between the BamHI and XhoI sites of the vector pcDNA5/FRT (Invitrogen), placing presenilin-1 expression under the control of the CMV promoter. The M146V mutated allele was introduced into the presenilin-1 expression construct by polymerase chain reaction using the oligonucleotide primers 5′-[…]-3′ and 5′-[…]-3 (QuikChange kit, Invitrogen). MEF dKO cultures were cotransfected with DNA constructs expressing APP-CTF, encoding the C-terminal 99 amino acids of APP [61] and either the human presenilin-1 or presenilin-1 M146V allele. Transfected cultures were incubated overnight at 37°C in 5% CO2 atmosphere and then harvested, resuspended in DMEM/F-12 medium, dispensed into 96-well culture plates, and incubated for 6 hours at 37°C in 5% CO2 atmosphere. Culture medium was then replaced with Ultraculture serum free medium (Lonza, Rockland, ME) with or without compounds at a range of concentrations and incubated overnight.
(§2) IC50 determinations for Aβ1-42 and Aβ1-40 in H4-APPsw cultures in 384-well format were determined using homogeneous time-resolved fluorescence immunoassays as previously described. The principle of these assays is illustrated in Figures 1(c) and 1(d). In other experiments using H4-APPsw cultures, Aβ was quantified by ELISA; for Aβ1-42 the combination of monoclonal antibodies was 26D6 and 565-HRP; for Aβ1-40 it was TSD and 26D6-HRP, and for Aβ1-x it was 4G8 and 26D6-HRP. In some experiments a novel 4-plex Aβ electrochemiluminescence immunoassay was used (Mesoscale Discovery catalog number N45ZA-1). Briefly, the 4-plex was carried out in 96-well format, with 4 separate spots of capture antibodies in each well. […] For Aβ in transiently transfected PS1/PS2 dKO fibroblasts, Aβ1-42 was quantified using an ELISA kit (WACO), and Aβ1-40 was quantified by ELISA as described above for H4-APPsw cultures. […] For the rat and mouse experiments illustrated in Figures 7 and 8, brain samples were prepared by solid phase extraction, and endogenous rat brain Aβ1-42 and Aβ1-40 were quantified by ELISA as previously described for wild type mice. […]

Assay [2] deals with Aβ1-40 (H4-APPsw). The experiment in a line: Aβ1-40 time-resolved fluorescence immunoassay in H4-APPsw cell cultures. The assay is classed as cell-based, human. The note with it: Homo sapiens; H4-APPsw cultures treated overnight. How it is done: as §1, §2
Assay [3] deals with mNotch1ΔE. Briefly: Notch signaling CBF1-luciferase reporter assay in HeLa cells transfected with mNotch1ΔE. The assay is classed as cell-based. As to the method: (§3) Inhibition of Notch signaling in cultured cells using a mouse-derived truncated Notch1 transgene, mNotch-ΔE [67], has been described in detail previously. Western blots for mNotchΔ1865 and NICD using 9E10 anti-c-myc monoclonal were carried out as previously described.
(§4) The effect of BMS-869780 on Notch processing was evaluated using transcriptional reporter assays and western blotting of NICD levels. HeLa cell cultures were transfected with mNotch1ΔE and CBF1-luciferase reporter constructs and treated with BMS-869780. In most replicates of this experiment, inhibition of luciferase reporter occurred with IC50 > 10 μM. […] To further evaluate the effect of BMS-869780 on Notch processing, western blots of cell cultures were carried out using mNotch1Δ1865, a truncated version of mNotch1ΔE that facilitates separation of NICD product from mNotch1 substrate on western blots. HeLa cell cultures were transfected with mNotch1Δ1865 and treated overnight with compounds before western blotting. […] Furthermore, the GSIs caused an increased level of mNotch1Δ1865 substrate, most likely due to inhibition of its turnover by γ-secretase, as previously noted by Blat et al..
(§5) (b) HeLa cell cultures were transfected with mNotchΔ1865, treated with compounds overnight, and cell extracts were evaluated by western blot using anti-c-myc-HRP conjugate. Lanes 1 and 9: DMSO (0.1%) vehicle. Lane 2: BMS-299897 at 1 μM. Lane 3: BMS-433796 at 0.3 μM. Lanes 4–8: BMS-869780 at 0.1, 0.3, 1, 3, and 10 μM, respectively.

For assay [4], the system named is mNotch1Δ1865. Briefly: Western blot of NICD and mNotch1Δ1865 in transfected HeLa cell cultures. The assay is classed as cell-based. The note with it: BMS-299897 at 1 μM, BMS-433796 at 0.3 μM. As to the method:
as §3, §4, §5
On the technique in general: Immunoblotting shows a protein as a band on a membrane.

Regarding `C[C@H](NC(=O)[C@@H](O)c1cc(F)cc(F)c1)C(=O)N[C@@H]1C(=O)N(C)N=Cc2ccccc21` [BMS-433796, (S)-2-((S)-2-(3,5-difluorophenyl)-2-hydroxyacetamido)-N-((S,Z)-3-methyl-4-oxo-4,5-dihydro-3H-benzo[d][1,2]diazepin-5-yl)propanamide, reference compound], the IC50 (commonly the concentration at which inhibition is half-maximal) is 0.16 nM in assay [1]; 0.19 nM in assay [2]; 2.1 nM in assay [3] (HeLa, treated overnight). Also, in assay [3] (GSIs), the “Notch/Aβ1-42 IC50 ratios” value worked out at 13. Moreover, the mNotch1ΔE/Aβ1-42 in assay [3] (ratio of IC50 values) is on record as 13x. The NICD levels entry in assay [4] is given as “greatly reduced NICD”.
